Assay results reported in ChEMBL document CHEMBL4382193, “Discovery of Potent Irreversible Pan-Fibroblast Growth Factor Receptor (FGFR) Inhibitors” (J Med Chem, 2018).
Activity calls are given as the source filed them. The rule behind the calls is not given here.

What was measured:
NCI-H1581 [1] = experiment: cells; conditions: Homo sapiens, NCI-H1581, 72 h
Description: Antiproliferative activity against FGFR1 amplified human NCI-H1581 cells after 72 hrs by CCK8 or MTT assay

[2] = Terminal half life in Sprague-Dawley rat at 10 mg/kg, po administered via gavage by HPLC-MS/MS analysis; assay type: ADME, organism-based; conditions: in vivo, read-out: beta t1/2 (converted)
[3] = AUC in Sprague-Dawley rat at 10 mg/kg, po administered via gavage by HPLC-MS/MS analysis; assay type: ADME, organism-based; conditions: in vivo
[4] = Tmax in Sprague-Dawley rat at 10 mg/kg, po administered via gavage by HPLC-MS/MS analysis; assay type: ADME, organism-based; conditions: in vivo
[5] = Cmax in Sprague-Dawley rat at 10 mg/kg, po administered via gavage by HPLC-MS/MS analysis; assay type: ADME, organism-based; set-up: dose 10 mg/kg, route oral; conditions: in vivo
[6] = molecular target: Fibroblast growth factor receptor 4 (Homo sapiens, UniProt P22455); experiment: Inhibition of recombinant FGFR4 (unknown origin) using poly (Glu,Tyr) 4:1 as substrate after 60 mins by ELISA
Fibroblast growth factor receptor 4, sequence (P22455 whole entry): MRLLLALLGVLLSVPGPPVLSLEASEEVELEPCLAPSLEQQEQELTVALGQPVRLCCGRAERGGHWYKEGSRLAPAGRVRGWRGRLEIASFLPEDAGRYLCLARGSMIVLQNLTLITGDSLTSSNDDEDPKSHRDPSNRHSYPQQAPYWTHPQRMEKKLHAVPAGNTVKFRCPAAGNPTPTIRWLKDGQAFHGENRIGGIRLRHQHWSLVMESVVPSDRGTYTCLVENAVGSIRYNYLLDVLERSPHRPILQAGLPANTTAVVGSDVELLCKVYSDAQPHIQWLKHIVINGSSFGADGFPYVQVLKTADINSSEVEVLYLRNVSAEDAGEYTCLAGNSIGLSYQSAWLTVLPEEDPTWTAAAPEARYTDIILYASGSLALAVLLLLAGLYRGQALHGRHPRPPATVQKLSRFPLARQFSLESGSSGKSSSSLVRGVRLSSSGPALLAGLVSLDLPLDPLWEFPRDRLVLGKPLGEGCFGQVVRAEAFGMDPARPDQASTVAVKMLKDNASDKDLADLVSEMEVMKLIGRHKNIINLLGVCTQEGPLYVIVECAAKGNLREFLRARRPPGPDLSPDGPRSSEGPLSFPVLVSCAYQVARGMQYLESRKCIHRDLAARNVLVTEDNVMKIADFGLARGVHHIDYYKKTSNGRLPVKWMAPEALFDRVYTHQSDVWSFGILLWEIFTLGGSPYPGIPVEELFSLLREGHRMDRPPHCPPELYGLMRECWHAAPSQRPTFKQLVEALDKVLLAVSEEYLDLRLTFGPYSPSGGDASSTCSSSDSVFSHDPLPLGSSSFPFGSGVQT

[7] = molecular target: T1, Fibroblast growth factor receptor 1 (Homo sapiens, UniProt P11362)
Target sequence in this assay (P11362 whole entry): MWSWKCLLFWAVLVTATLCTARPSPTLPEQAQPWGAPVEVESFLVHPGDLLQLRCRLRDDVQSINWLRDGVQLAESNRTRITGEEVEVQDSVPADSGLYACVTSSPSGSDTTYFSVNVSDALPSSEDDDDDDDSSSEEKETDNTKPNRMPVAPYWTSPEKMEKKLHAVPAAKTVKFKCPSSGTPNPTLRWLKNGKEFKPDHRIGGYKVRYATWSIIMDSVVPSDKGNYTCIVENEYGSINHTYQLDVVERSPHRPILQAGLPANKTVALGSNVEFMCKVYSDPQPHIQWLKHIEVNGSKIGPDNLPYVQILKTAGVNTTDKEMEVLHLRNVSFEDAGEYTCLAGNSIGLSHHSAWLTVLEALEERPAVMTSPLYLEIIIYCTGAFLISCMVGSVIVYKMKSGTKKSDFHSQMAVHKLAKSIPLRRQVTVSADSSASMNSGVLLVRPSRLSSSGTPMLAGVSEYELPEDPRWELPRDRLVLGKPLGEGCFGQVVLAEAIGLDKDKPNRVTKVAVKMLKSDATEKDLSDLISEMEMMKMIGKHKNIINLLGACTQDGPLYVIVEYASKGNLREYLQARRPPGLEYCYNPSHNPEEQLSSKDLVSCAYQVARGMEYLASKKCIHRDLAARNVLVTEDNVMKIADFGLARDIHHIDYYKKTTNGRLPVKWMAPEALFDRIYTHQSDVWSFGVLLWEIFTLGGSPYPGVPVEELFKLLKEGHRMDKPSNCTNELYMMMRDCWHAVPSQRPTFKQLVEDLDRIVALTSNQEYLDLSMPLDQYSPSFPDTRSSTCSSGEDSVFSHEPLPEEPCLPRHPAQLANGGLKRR
Description: Inhibition of recombinant FGFR1 (unknown origin) using poly (Glu,Tyr) 4:1 as substrate after 60 mins by ELISA

[8] = molecular target: Hepatocyte growth factor receptor (Homo sapiens, UniProt P08581); experiment: Inhibition of recombinant c-MET (unknown origin) using poly (Glu,Tyr) 4:1 as substrate after 60 mins by ELISA
[9] = molecular target: Platelet-derived growth factor receptor alpha (Homo sapiens, UniProt P16234); experiment: Inhibition of recombinant PDGFRalpha (unknown origin) using poly (Glu,Tyr) 4:1 as substrate after 60 mins by ELISA
[10] = molecular target: Insulin-like growth factor 1 receptor (Homo sapiens, UniProt P08069); experiment: Inhibition of recombinant IGF1R (unknown origin) using poly (Glu,Tyr) 4:1 as substrate after 60 mins by ELISA
[11] = molecular target: Proto-oncogene tyrosine-protein kinase Src (Homo sapiens, UniProt P12931); experiment: Inhibition of recombinant c-SRC (unknown origin) using poly (Glu,Tyr) 4:1 as substrate after 60 mins by ELISA
[12] = molecular target: T2, Fibroblast growth factor receptor 3 (Homo sapiens, UniProt P22607); experiment: Inhibition of FGFR3 in human UMUC14 cells assessed as reduction in ERK phosphorylation at 1 to 100 nM after 2 hrs by Western blot analysis; assay type: cell-based
Target sequence in this assay (P22607 23-806 limits assumed): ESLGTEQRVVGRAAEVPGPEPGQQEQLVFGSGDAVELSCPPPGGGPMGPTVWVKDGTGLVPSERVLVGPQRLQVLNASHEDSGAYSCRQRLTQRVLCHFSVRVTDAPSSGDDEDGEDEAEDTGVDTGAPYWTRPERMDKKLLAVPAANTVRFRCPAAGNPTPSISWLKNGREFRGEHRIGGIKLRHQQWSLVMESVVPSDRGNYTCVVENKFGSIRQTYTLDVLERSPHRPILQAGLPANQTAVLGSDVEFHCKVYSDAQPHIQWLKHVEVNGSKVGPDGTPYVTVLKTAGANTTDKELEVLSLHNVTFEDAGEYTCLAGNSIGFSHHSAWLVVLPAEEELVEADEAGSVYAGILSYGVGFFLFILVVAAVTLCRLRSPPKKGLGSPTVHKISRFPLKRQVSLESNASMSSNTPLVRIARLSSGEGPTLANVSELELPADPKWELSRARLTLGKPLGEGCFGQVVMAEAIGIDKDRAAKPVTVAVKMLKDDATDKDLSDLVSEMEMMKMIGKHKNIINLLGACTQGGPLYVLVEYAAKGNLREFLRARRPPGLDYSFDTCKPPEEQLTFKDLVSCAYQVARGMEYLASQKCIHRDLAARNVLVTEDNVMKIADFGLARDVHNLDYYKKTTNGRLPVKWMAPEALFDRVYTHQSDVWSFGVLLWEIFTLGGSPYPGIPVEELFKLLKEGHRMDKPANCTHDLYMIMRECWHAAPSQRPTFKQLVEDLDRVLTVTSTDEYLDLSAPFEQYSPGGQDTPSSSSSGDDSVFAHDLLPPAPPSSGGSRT

[13] = molecular target: Platelet-derived growth factor receptor beta (Homo sapiens, UniProt P09619); experiment: Inhibition of recombinant PDGFRbeta (unknown origin) using poly (Glu,Tyr) 4:1 as substrate after 60 mins by ELISA
[14] = molecular target: Vascular endothelial growth factor receptor 2 (Homo sapiens, UniProt P35968); experiment: Inhibition of recombinant VEGFR2 (unknown origin) using poly (Glu,Tyr) 4:1 as substrate after 60 mins by ELISA
[15] = molecular target: Tyrosine-protein kinase BTK (Homo sapiens, UniProt Q06187); experiment: Inhibition of recombinant BTK (unknown origin) using poly (Glu,Tyr) 4:1 as substrate after 60 mins by ELISA
Tyrosine-protein kinase BTK, sequence (Q06187 whole entry): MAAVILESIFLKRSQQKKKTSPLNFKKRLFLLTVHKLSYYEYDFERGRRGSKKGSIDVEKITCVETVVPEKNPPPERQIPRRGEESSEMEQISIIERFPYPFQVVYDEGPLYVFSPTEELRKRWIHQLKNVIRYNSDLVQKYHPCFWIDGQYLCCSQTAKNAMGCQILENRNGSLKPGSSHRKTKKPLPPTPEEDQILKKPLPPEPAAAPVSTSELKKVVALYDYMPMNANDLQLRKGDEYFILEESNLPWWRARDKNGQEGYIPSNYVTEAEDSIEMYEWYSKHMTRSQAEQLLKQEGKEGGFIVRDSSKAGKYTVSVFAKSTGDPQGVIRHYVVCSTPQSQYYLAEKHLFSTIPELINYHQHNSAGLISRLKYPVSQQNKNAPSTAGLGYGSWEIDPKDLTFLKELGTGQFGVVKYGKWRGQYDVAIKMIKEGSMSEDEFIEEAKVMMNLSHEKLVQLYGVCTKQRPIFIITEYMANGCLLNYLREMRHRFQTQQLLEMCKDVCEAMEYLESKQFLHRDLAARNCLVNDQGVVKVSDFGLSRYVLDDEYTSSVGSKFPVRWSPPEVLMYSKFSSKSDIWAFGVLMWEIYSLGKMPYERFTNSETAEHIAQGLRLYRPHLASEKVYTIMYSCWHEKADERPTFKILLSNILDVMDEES

[16] = molecular target: T1, Fibroblast growth factor receptor 1; experiment: Inhibition of FGFR1 in human KG1 cells assessed as reduction in PLCgamma phosphorylation at 5 to 20 nM after 2 hrs by Western blot analysis; assay type: cell-based
Target sequence in this assay (P11362 22-822 limits assumed): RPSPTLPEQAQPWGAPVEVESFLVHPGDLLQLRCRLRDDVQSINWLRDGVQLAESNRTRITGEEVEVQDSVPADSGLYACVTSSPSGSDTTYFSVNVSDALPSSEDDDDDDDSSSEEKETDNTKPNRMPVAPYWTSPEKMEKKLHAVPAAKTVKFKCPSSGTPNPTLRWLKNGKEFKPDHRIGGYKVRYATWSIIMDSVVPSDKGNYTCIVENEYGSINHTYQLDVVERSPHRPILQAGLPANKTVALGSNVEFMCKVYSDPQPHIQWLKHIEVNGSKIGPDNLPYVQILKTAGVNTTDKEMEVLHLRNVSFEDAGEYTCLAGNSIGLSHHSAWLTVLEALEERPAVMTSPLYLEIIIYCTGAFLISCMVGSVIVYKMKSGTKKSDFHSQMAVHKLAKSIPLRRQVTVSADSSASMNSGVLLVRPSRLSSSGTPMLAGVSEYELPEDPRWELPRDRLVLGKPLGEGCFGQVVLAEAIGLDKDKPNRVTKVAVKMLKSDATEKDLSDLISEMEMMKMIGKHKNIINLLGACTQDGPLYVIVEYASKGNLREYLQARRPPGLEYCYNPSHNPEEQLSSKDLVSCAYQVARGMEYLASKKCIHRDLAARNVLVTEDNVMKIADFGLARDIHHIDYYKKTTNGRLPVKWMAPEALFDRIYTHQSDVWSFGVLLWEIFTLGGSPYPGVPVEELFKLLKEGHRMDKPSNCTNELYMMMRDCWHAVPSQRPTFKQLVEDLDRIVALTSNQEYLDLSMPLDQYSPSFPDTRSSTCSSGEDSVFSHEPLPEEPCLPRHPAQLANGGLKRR

Homo sapiens = species: Homo sapiens; experiment: Selectivity ratio of IC50 for recombinant VEGFR2 (unknown origin) to IC50 for recombinant FGFR1 (unknown origin)
[17] = molecular target: T2, Fibroblast growth factor receptor 3; experiment: Inhibition of FGFR3 in human UMUC14 cells assessed as reduction in PLCgamma phosphorylation at 1 to 100 nM after 2 hrs by Western blot analysis; assay type: cell-based
Target sequence in this assay (P22607 23-806 limits assumed): as the sequence (P22607 23-806 limits assumed) above

[18] = molecular target: T3, Fibroblast growth factor receptor 2 (Homo sapiens, UniProt P21802); experiment: Inhibition of recombinant FGFR2 (unknown origin) using poly (Glu,Tyr) 4:1 as substrate after 60 mins by ELISA
[19] = molecular target: T2, Fibroblast growth factor receptor 3; experiment: Inhibition of FGFR3 phosphorylation in human UMUC14 cells at 1 to 100 nM after 2 hrs by Western blot analysis; assay type: cell-based
Target sequence in this assay (P22607 23-806 limits assumed): as above

SNU-16 [20] = experiment: cells; conditions: Homo sapiens, SNU-16, 72 h
Description: Antiproliferative activity against FGFR2 amplified human SNU16 cells after 72 hrs by CCK8 or MTT assay

[21] = molecular target: T1, Fibroblast growth factor receptor 1; experiment: Inhibition of FGFR1 phosphorylation in human KG1 cells at 5 to 20 nM after 2 hrs by Western blot analysis; assay type: cell-based
Target sequence in this assay (P11362 22-822 limits assumed): as the sequence (P11362 22-822 limits assumed) above

[22] = molecular target: Tyrosine-protein kinase ABL1 (Homo sapiens, UniProt P00519); experiment: Inhibition of recombinant ABL (unknown origin) using poly (Glu,Tyr) 4:1 as substrate after 60 mins by ELISA
NCI-H1581 [23] = experiment: Antitumor activity against FGFR1 amplified human NCI-H1581 cells xenografted in nude mouse assessed as tumor growth inhibition at 100 mg/kg, po administered once daily for 14 days relative to control; assay type: functional; conditions: 336 h, read-out: TGI
Ephrin type-A receptor 2 = Ephrin type-A receptor 2 (Homo sapiens, UniProt P29317); experiment: Inhibition of recombinant EPHA2 (unknown origin) using poly (Glu,Tyr) 4:1 as substrate after 60 mins by ELISA
[24] = molecular target: Receptor tyrosine-protein kinase erbB-4 (Homo sapiens, UniProt Q15303); experiment: Inhibition of recombinant ERBB4 (unknown origin) using poly (Glu,Tyr) 4:1 as substrate after 60 mins by ELISA
SNU-16 [25] = experiment: Antitumor activity against FGFR2 amplified human SNU16 cells xenografted in nude mouse assessed as tumor growth inhibition at 50 mg/kg, po administered once daily for 21 days relative to control; assay type: functional; conditions: SNU-16, po, 504 h, read-out: TGI
[26] = molecular target: ALK tyrosine kinase receptor (Homo sapiens, UniProt Q9UM73); experiment: Inhibition of recombinant ALK (unknown origin) using poly (Glu,Tyr) 4:1 as substrate after 60 mins by ELISA
[27] = molecular target: T3, Fibroblast growth factor receptor 2; experiment: Inhibition of FGFR2 in human SNU16 cells assessed as reduction in PLCgamma phosphorylation at 0.1 to 10 nM after 2 hrs by Western blot analysis; assay type: cell-based
Target sequence in this assay (P21802 22-821 limits assumed): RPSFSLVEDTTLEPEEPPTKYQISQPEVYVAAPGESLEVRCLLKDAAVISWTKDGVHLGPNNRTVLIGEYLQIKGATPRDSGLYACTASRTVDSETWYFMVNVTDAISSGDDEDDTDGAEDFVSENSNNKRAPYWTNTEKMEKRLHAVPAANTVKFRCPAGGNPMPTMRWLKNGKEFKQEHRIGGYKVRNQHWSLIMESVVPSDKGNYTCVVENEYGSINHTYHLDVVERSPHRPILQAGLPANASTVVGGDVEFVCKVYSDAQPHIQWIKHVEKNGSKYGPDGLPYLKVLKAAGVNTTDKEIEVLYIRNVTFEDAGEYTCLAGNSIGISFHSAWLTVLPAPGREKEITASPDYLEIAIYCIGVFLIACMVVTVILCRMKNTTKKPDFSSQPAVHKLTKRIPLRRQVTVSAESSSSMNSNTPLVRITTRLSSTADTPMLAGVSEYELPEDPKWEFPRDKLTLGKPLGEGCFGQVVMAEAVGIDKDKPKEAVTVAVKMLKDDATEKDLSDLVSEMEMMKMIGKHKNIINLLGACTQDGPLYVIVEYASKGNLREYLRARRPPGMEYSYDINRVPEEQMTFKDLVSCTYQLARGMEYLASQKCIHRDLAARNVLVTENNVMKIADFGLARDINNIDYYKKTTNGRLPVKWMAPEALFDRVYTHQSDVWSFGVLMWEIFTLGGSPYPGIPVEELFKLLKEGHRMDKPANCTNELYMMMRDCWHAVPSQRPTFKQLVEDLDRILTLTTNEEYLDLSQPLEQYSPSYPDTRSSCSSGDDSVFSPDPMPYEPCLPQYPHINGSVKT

[28] = molecular target: T2, Fibroblast growth factor receptor 3; experiment: Inhibition of recombinant FGFR3 (unknown origin) using poly (Glu,Tyr) 4:1 as substrate after 60 mins by ELISA
[29] = Toxicity in nude mouse xenografted with FGFR1 amplified human NCI-H1581 cells assessed as weight loss at 50 to 100 mg/kg, po administered once daily for 14 days relative to control; assay type: organism-based; conditions: in vivo, 336 h
OPM-2 = experiment: cells; conditions: Homo sapiens, OPM-2, 72 h
Description: Antiproliferative activity against FGFR3 amplified human OPM2 cells after 72 hrs by CCK8 or MTT assay

Huh-7 = experiment: cells; conditions: Homo sapiens, Huh-7, 72 h
Description: Antiproliferative activity against FGF19/FGFR4 expressing human HuH7 cells after 72 hrs by CCK8 or MTT assay

[30] = molecular target: T1, Fibroblast growth factor receptor 1; experiment: Irreversible inhibition of FGFR1 (unknown origin) at 100 times IC50 concentration using 5-FAM-KKSRGDYMTMQIG-CONH2 peptide as substrate preincubated for 30 mins followed 100 fold dilution with substrate and ATP and measured for 1 hr
Target sequence in this assay (P11362 22-822 limits assumed): as the sequence (P11362 22-822 limits assumed) above

[31] = molecular target: T3, Fibroblast growth factor receptor 2; experiment: Inhibition of FGFR2 phosphorylation in human SNU16 cells at 0.1 to 10 nM after 2 hrs by Western blot analysis; assay type: cell-based
Target sequence in this assay (P21802 22-821 limits assumed): as the sequence (P21802 22-821 limits assumed) above

NCI-H1581 [32] = experiment: Antitumor activity against FGFR1 amplified human NCI-H1581 cells xenografted in po dosed nude mouse assessed as tumor growth inhibition administered once daily for 14 days; assay type: functional, organism-based
RT-112 = experiment: cells; conditions: Homo sapiens, RT-112, 72 h
Description: Antiproliferative activity against FGFR3 amplified human RT112 cells after 72 hrs by CCK8 or MTT assay

[33] = molecular target: T1, Fibroblast growth factor receptor 1; experiment: Inhibition of FGFR1 in human KG1 cells assessed as reduction in ERK phosphorylation at 5 to 20 nM after 2 hrs by Western blot analysis; assay type: cell-based
Target sequence in this assay (P11362 22-822 limits assumed): as the sequence (P11362 22-822 limits assumed) above

[34] = molecular target: Receptor tyrosine-protein kinase erbB-2 (Homo sapiens, UniProt P04626); experiment: Inhibition of recombinant ERBB2 (unknown origin) using poly (Glu,Tyr) 4:1 as substrate after 60 mins by ELISA
[35] = molecular target: Epidermal growth factor receptor (Homo sapiens, UniProt P00533); experiment: Inhibition of recombinant EGFR (unknown origin) using poly (Glu,Tyr) 4:1 as substrate after 60 mins by ELISA
SNU-16 [36] = experiment: Antitumor activity against FGFR2 amplified human SNU16 cells xenografted in po dosed nude mouse assessed as tumor growth inhibition administered once daily for 21 days; assay type: functional, organism-based
BaF3 [37] = experiment: cells; conditions: Mus musculus, BaF3, 72 h
Description: Antiproliferative activity against mouse BAF3 cells expressing TEL-fused FGFR4 kinase after 72 hrs by CCK8 or MTT assay

BaF3 [38] = experiment: cells; conditions: Mus musculus, BaF3, 72 h; remark: listed apart in the source
Description: Antiproliferative activity against mouse BAF3 cells expressing TEL-fused KDR kinase after 72 hrs by CCK8 or MTT assay

[39] = molecular target: T3, Fibroblast growth factor receptor 2; experiment: Inhibition of FGFR2 in human SNU16 cells assessed as reduction in ERK phosphorylation at 0.1 to 10 nM after 2 hrs by Western blot analysis; assay type: cell-based
Target sequence in this assay (P21802 22-821 limits assumed): as the sequence (P21802 22-821 limits assumed) above

[40] = Toxicity in nude mouse xenografted with FGFR2 amplified human SNU16 cells assessed as weight loss at 25 to 50 mg/kg, po administered once daily for 21 days relative to control; assay type: organism-based; conditions: in vivo, 504 h
[41] = molecular target: Vascular endothelial growth factor receptor 1 (Homo sapiens, UniProt P17948); experiment: Inhibition of recombinant FLT1 (unknown origin) using poly (Glu,Tyr) 4:1 as substrate after 60 mins by ELISA

## C=CC(=O)N1CC(n2cc(-c3cc4c(OC)ccc(OC)c4s3)c3c(N)ncnc32)C1
NCI-H1581 [1]
  IC50: 15.9 nM

## C=CC(=O)N1CCC(n2cc(-c3cc4cc(C)cc(OC)c4s3)c3c(N)nc(N)nc32)C1 (stereo unspecified)
NCI-H1581 [1]
  IC50: 25.7 nM

## C=CC(=O)N1CC(n2cc(-c3cc4cc(C)cc(OC)c4s3)c3c(N)ncnc32)C1
[2]
  half-life: 2.11 h
[3]
  AUC: 46.4 ng·h/mL
NCI-H1581 [1]
  IC50: < 0.3 nM
[4]
  Tmax: 1.67 h
[5]
  Cmax: 12 ng/mL

## C=CC(=O)N1CC(n2cc(-c3cc4cc(C)cc(OC)c4o3)c3c(N)ncnc32)C1
[6]
  IC50: > 1000 nM

## C=CC(=O)N1CCCC(n2cc(-c3cc4cc(C)cc(OC)c4s3)c3c(N)ncnc32)C1 (stereo unspecified)
NCI-H1581 [1]
  IC50: 227 nM

## C=CC(=O)N1CC[C@@H](n2cc(-c3cc4cc(C)cc(OC)c4s3)c3c(N)ncnc32)C1
[6]
  IC50: 82.7 nM
[7]
  IC50: 0.6 nM
NCI-H1581 [1]
  IC50: 21.7 nM

## C=CC(=O)N1CC(n2cc(-c3cc4ccccc4s3)c3c(N)ncnc32)C1
NCI-H1581 [1]
  IC50: 170 nM

## C=CC(=O)N1CC[C@H](n2cc(-c3cc4cc(C)cc(OC)c4s3)c3c(N)ncnc32)C1
[8]
  IC50: > 1000 nM
[9]
  IC50: > 1000 nM
[10]
  IC50: > 1000 nM
[6]
  IC50: 5.3 nM
[11]
  IC50: > 1000 nM
[12]
  inhibition: Active
[13]
  IC50: > 1000 nM
[14]
  IC50: 113 nM
[15]
  IC50: > 1000 nM
[16]
  inhibition: Active
Homo sapiens
  Ratio IC50: > 350
[17]
  inhibition: Active
[18]
  IC50: 0.8 nM
[19]
  inhibition: Active
SNU-16 [20]
  IC50: < 0.1 nM
[21]
  inhibition: Active
[22]
  IC50: > 1000 nM
[2]
  half-life: 1.73 h
[3]
  AUC: 277 ng·h/mL
NCI-H1581 [23]
  inhibition in vivo at 100 mg/kg: 98.9%
Ephrin type-A receptor 2
  IC50: > 1000 nM
[7]
  IC50: < 0.3 nM
[24]
  IC50: > 1000 nM
SNU-16 [25]
  inhibition in vivo at 50 mg/kg: 85.8%
[26]
  IC50: > 1000 nM
[27]
  inhibition: Active
[28]
  IC50: 9.4 nM
[29]
  Activity: Non-Toxic
OPM-2
  IC50: < 0.5 nM
Huh-7
  IC50: < 1.5 nM
[30]
  inhibition: Active
NCI-H1581 [1]
  IC50: 0.3 to 0.5 nM
[31]
  inhibition: Active
NCI-H1581 [32]
  TGI: Dose-dependent effect
RT-112
  IC50: < 0.5 nM
[33]
  inhibition: Active
[34]
  IC50: > 1000 nM
[4]
  Tmax: 2.75 h
[35]
  IC50: > 1000 nM
[5]
  Cmax: 77.7 ng/mL
SNU-16 [36]
  TGI: Dose-dependent effect
BaF3 [37]
  IC50: < 4.6 nM
BaF3 [38]
  IC50: 294 nM
[39]
  inhibition: Active
[40]
  Activity: Non-Toxic
[41]
  IC50: > 1000 nM

## C=CC(=O)N1CCC(n2cc(-c3cc4cc(OC)cc(OC)c4s3)c3c(N)ncnc32)C1 (stereo unspecified)
NCI-H1581 [1]
  IC50: < 0.3 nM

## C=CC(=O)N1CC(n2cc(-c3cc4ccc(OC)cc4s3)c3c(N)ncnc32)C1
NCI-H1581 [1]
  IC50: 86.1 nM

## C#CC(=O)N1CCC(n2cc(-c3cc4cc(C)cc(OC)c4s3)c3c(N)ncnc32)C1 (stereo unspecified)
NCI-H1581 [1]
  IC50: > 1000 nM

## C=CC(=O)NCCn1cc(-c2cc3cc(C)cc(OC)c3s2)c2c(N)ncnc21
NCI-H1581 [1]
  IC50: 255 nM

## C=CC(=O)N1CC(n2cc(-c3cc4cc(OC)ccc4s3)c3c(N)ncnc32)C1
NCI-H1581 [1]
  IC50: 38.1 nM

## C=CC(=O)NC1CCC(n2cc(-c3cc4cc(C)cc(OC)c4s3)c3c(N)ncnc32)CC1 (stereo unspecified)
NCI-H1581 [1]
  IC50: 67.9 nM

## C=CC(=O)N1CCC(n2cc(-c3cc4cccc(C)c4s3)c3c(N)ncnc32)C1 (stereo unspecified)
NCI-H1581 [1]
  IC50: < 0.3 nM
